The supplement of paper PMC10307832

How the values were obtained:
Assay in all cases: relative viability (nuclei count vs DMSO), 5 days (fraction); higher = more cells survive
[1] = compound: CC1=CC(=C(N1C2=CC=C(C=C2)Cl)C)C(=O)CN3CCCCC3 [IU1-47] + CC(C)C[C@H](NC(=O)[C@H](Cc1ccccc1)NC(=O)c1cnccn1)B(O)O [Bortezomib] (partner 0.002 µM)
Outline: (§1)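 After 5 days of treatment, lung cancer cells in 1536-well plates were fixed and stained in a single step (final 0.05% Triton X-100, 1% formaldehyde, 1 ug/ml Hoechst) and their nuclei counted on 4× images. Treatment had been applied by pin tool the day after seeding as one drug alone or as a fixed anchor-drug dose with five library-drug doses (not always all listed) in √10 steps. Relative viability is the nuclei count of treated wells divided by that of vehicle wells, and values are medians of duplicate plates.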

[2] = compound: CC1=CC(=C(N1C2=CC=C(C=C2)Cl)C)C(=O)CN3CCCCC3 [IU1-47] + O=C(CCCCCCC(=O)Nc1ccccc1)NO [Vorinostat] (partner 1 µM)
Outline: as §1

[3] = compound: Cc1nc(C(=O)NCC(=O)O)c(O)c2ccc(Oc3ccccc3)cc12 [FG-4592] + N=C(N)NC(=N)NCCc1ccccc1 [Phenformin] (partner 250 µM)
Outline: as §1

[4] = compound: Cc1nc(C(=O)NCC(=O)O)c(O)c2ccc(Oc3ccccc3)cc12 [FG-4592] + NC(=O)Nc1cc(-c2cccc(F)c2)sc1C(=O)N[C@H]1CCCNC1 [AZD7762] (partner 0.2 µM)
Outline: as §1

Row | Cell Line | relative viability ([1]; first compound 0.08 µM) | relative viability ([1]; first compound 0.253 µM) | relative viability ([1]; first compound 0.8 µM) | relative viability ([1]; first compound 2.53 µM) | relative viability ([1]; first compound 8 µM) | relative viability ([2]; first compound 0.08 µM) | relative viability ([2]; first compound 0.253 µM) | relative viability ([2]; first compound 0.8 µM) | relative viability ([2]; first compound 8 µM) | relative viability ([3]; first compound 0.08 µM) | relative viability ([3]; first compound 0.253 µM) | relative viability ([3]; first compound 0.8 µM) | relative viability ([3]; first compound 2.53 µM) | relative viability ([3]; first compound 8 µM) | relative viability ([4]; first compound 0.08 µM) | relative viability ([4]; first compound 0.253 µM) | relative viability ([4]; first compound 0.8 µM) | relative viability ([4]; first compound 2.53 µM) | relative viability ([4]; first compound 8 µM) | relative viability ([2]; first compound 2.53 µM)
1 | LCLC-97TM1 | 0.9 | 1.13 | 0.455 | 0.425 | 0.261 | 0.919 | 0.869 | 0.82 | 0.571 | 0.415 | 0.385 | 0.44 | 0.423 | 0.426 | 0.255 | 0.173 | 0.274 | 0.132 | 0.315 | –
2 | LCLC-103H | 1.2 | 1.14 | 1.1 | 1.12 | 1.08 | 0.748 | 0.819 | 0.82 | 0.704 | 0.3 | 0.325 | 0.248 | 0.294 | 0.319 | 0.609 | 0.741 | 0.635 | 0.785 | 0.686 | 0.561
3 | PC-3 [JPC-3] | 0.909 | 0.805 | 0.841 | – | 0.885 | 0.857 | 1.04 | 0.772 | 0.972 | 0.489 | 0.457 | 0.531 | 0.462 | 0.486 | 0.802 | 0.762 | – | 0.726 | 0.8 | 0.691
4 | BEN | 0.755 | 0.906 | 1.07 | 0.848 | 0.641 | 0.605 | 0.653 | 0.681 | 0.544 | 0.234 | 0.231 | 0.268 | 0.288 | 0.306 | 0.555 | 0.617 | 0.476 | 0.666 | 0.527 | 0.564
5 | NCI-H1666 | 0.811 | 0.831 | 0.926 | 0.728 | 0.727 | 0.961 | 0.984 | 1.08 | 1.03 | 0.611 | 0.518 | 0.613 | 0.377 | 0.562 | 0.81 | 0.764 | 0.899 | 0.9 | 0.875 | 1.1
6 | LC-2-ad | 1.03 | 1.08 | 1.1 | 1.03 | 0.97 | 0.736 | 0.736 | 0.71 | 0.715 | 0.571 | 0.541 | – | 0.527 | 0.658 | 0.912 | 0.833 | 0.831 | 0.817 | 0.83 | –
7 | ChaGo-K-1 | 0.953 | 0.971 | 0.952 | 1.27 | 0.682 | 0.835 | 0.766 | 0.806 | 0.717 | 0.525 | 0.478 | 0.44 | 0.466 | 0.492 | 0.846 | 0.888 | 0.856 | 0.93 | 0.66 | 0.623
8 | NCI-H1975 | 0.375 | 0.408 | 0.455 | 0.308 | 0.317 | 0.733 | 0.756 | 0.795 | 0.594 | 0.384 | 0.399 | 0.369 | 0.384 | 0.396 | 0.782 | 0.644 | 0.684 | 0.712 | 0.709 | 0.664
9 | NCI-H1993 | 1.26 | 1.25 | 1.18 | 1.37 | 1.18 | 0.635 | 0.858 | 0.819 | 0.718 | 0.513 | 0.427 | 0.5 | 0.421 | 0.507 | 0.769 | 0.723 | – | 0.892 | 0.56 | 0.835
